Source: the kinase profiling compilation of Christmann-Franck et al. (2016)

Assays:
Experiment in all cases: radiometric filter-binding kinase assay, Kinase HotSpot
Conditions in all cases: compound 0.5 µM; ATP 10 µM
[1] = molecular target: ACVR1 (human) (UniProt Q04771)
[2] = molecular target: ACVR1B (human) (UniProt P36896)
[3] = molecular target: ADRBK1 (human) (UniProt P25098)
[4] = molecular target: AURKC (human) (UniProt Q9UQB9)
[5] = molecular target: BMX (human) (UniProt P51813)
[6] = molecular target: BRAF (human) (UniProt P15056)
[7] = molecular target: CAMK1 (human) (UniProt Q14012)
[8] = molecular target: CDK1 CCNB1 (human) (UniProt P06493+P14635)
Chain of CDK1 CCNB1 (human) (P06493 whole entry, looked up): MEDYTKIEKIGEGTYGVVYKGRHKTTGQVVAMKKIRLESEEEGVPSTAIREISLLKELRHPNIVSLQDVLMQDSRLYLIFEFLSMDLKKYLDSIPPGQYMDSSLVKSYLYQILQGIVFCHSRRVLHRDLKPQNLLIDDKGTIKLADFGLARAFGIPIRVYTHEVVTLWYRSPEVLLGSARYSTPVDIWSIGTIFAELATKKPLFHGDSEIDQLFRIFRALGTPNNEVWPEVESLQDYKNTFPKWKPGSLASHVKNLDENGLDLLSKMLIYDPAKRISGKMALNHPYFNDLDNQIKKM
Chain of CDK1 CCNB1 (human) (P14635 whole entry, looked up): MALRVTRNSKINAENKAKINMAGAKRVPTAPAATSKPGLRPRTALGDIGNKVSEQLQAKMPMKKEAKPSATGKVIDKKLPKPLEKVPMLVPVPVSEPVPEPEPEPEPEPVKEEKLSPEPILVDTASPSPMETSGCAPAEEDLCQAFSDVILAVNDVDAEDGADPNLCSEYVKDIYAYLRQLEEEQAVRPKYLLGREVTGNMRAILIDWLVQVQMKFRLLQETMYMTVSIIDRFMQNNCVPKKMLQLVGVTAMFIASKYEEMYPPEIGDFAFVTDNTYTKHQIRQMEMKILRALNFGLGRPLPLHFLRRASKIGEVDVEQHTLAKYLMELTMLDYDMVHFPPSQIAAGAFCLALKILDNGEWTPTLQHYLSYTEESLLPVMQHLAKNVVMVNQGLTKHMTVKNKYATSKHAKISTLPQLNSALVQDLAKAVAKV

[9] = molecular target: CSNK2A2 (human) (UniProt P19784)
[10] = molecular target: DAPK1 (human) (UniProt P53355)
[11] = molecular target: DDR2 (human) (UniProt Q16832)
[12] = molecular target: DYRK2 (human) (UniProt Q92630)
[13] = molecular target: EPHA5 (human) (UniProt P54756)
[14] = molecular target: EPHA7 (human) (UniProt Q15375)
[15] = molecular target: FES (human) (UniProt P07332)
Chain of FES (human) (P07332 whole entry, looked up): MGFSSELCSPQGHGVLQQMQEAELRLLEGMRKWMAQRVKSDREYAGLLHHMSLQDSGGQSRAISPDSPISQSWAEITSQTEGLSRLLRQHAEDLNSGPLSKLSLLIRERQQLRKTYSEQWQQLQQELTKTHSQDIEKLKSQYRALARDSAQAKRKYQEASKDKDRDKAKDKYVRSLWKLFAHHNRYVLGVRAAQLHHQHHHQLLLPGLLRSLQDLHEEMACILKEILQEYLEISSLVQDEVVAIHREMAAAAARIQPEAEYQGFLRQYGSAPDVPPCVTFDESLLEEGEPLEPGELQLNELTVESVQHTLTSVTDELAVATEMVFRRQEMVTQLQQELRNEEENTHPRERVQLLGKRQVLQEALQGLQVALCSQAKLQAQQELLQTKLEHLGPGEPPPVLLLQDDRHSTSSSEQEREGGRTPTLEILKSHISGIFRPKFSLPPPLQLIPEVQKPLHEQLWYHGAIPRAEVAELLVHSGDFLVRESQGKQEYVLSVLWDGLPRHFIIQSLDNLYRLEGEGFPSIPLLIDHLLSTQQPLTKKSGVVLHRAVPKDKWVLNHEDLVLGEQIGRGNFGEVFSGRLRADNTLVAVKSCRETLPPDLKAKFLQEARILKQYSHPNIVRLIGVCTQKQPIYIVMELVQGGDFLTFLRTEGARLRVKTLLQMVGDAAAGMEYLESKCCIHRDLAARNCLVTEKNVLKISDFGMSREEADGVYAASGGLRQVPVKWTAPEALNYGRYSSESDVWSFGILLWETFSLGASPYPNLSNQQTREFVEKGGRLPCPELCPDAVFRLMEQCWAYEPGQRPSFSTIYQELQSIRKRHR

[16] = molecular target: FLT1 (human) (UniProt P17948)
[17] = molecular target: FLT3 (human) (UniProt P36888)
Chain of FLT3 (human) (P36888 whole entry, looked up): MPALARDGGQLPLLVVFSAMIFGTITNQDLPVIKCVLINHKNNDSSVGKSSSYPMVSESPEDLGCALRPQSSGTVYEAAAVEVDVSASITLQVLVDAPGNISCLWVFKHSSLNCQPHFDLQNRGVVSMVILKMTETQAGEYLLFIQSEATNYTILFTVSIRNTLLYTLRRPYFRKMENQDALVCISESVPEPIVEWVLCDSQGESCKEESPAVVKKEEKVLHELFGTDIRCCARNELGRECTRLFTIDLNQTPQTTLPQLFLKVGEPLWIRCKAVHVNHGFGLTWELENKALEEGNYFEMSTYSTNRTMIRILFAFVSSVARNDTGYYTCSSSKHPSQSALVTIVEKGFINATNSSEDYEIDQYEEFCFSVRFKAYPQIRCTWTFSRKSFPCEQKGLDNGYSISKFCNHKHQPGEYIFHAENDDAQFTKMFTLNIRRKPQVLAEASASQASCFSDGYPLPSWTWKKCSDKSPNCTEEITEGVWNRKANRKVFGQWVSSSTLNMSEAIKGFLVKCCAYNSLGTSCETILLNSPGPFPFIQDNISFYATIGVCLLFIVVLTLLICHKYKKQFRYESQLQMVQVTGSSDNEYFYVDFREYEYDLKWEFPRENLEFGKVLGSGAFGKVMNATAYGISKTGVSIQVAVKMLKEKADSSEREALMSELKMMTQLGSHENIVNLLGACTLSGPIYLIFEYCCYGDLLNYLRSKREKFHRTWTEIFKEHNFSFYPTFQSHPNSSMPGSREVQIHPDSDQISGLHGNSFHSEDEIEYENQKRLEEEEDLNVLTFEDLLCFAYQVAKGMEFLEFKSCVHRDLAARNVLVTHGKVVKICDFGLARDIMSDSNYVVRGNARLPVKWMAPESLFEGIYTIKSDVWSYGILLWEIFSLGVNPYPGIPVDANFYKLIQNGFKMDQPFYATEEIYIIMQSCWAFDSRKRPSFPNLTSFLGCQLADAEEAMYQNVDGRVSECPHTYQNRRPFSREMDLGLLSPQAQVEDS

[18] = molecular target: FYN (human) (UniProt P06241)
[19] = molecular target: GSK3A (human) (UniProt P49840)
[20] = molecular target: GSK3B (human) (UniProt P49841)
[21] = molecular target: HIPK4 (human) (UniProt Q8NE63)
[22] = molecular target: IKBKB (human) (UniProt O14920)
[23] = molecular target: IKBKE (human) (UniProt Q14164)
[24] = molecular target: LRRK2 (human) (UniProt Q5S007)
[25] = molecular target: MAP3K10 (human) (UniProt Q02779)
[26] = molecular target: MAP3K3 (human) (UniProt Q99759)
[27] = molecular target: MAPKAPK2 (human) (UniProt P49137)
Chain of MAPKAPK2 (human) (P49137 whole entry, looked up): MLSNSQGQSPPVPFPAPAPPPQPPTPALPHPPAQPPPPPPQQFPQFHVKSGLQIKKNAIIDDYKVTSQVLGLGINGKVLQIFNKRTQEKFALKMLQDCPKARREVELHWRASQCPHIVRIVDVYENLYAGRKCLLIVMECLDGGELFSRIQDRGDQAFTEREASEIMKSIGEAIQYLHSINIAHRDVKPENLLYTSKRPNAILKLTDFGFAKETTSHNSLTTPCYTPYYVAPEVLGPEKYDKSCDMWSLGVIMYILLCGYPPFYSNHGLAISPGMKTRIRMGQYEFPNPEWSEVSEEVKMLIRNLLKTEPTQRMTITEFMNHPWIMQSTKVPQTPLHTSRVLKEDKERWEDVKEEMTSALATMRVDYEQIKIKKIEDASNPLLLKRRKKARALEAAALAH

[28] = molecular target: MST4 (human) (UniProt Q9P289)
[29] = molecular target: MYLK2 (human) (UniProt Q9H1R3)
[30] = molecular target: PAK4 (human) (UniProt O96013)
[31] = molecular target: PHKG1 (human) (UniProt Q16816)
[32] = molecular target: PLK3 (human) (UniProt Q9H4B4)
[33] = molecular target: PRKCB1 (human) (UniProt P05771)
[34] = molecular target: PTK6 (human) (UniProt Q13882)
[35] = molecular target: ROCK1 (human) (UniProt Q13464)
[36] = molecular target: STK16 (human) (UniProt O75716)
Chain of STK16 (human) (O75716 whole entry, looked up): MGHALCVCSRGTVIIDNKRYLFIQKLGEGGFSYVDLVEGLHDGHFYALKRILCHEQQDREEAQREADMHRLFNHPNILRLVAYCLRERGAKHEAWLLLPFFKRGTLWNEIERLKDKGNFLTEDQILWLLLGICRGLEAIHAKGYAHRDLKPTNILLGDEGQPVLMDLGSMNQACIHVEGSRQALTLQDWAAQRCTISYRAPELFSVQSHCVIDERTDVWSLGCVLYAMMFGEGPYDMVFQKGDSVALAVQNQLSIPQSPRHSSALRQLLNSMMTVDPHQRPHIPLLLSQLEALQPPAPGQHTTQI

[37] = molecular target: STK33 (human) (UniProt Q9BYT3)
[38] = molecular target: YES1 (human) (UniProt P07947)
Chain of YES1 (human) (P07947 whole entry, looked up): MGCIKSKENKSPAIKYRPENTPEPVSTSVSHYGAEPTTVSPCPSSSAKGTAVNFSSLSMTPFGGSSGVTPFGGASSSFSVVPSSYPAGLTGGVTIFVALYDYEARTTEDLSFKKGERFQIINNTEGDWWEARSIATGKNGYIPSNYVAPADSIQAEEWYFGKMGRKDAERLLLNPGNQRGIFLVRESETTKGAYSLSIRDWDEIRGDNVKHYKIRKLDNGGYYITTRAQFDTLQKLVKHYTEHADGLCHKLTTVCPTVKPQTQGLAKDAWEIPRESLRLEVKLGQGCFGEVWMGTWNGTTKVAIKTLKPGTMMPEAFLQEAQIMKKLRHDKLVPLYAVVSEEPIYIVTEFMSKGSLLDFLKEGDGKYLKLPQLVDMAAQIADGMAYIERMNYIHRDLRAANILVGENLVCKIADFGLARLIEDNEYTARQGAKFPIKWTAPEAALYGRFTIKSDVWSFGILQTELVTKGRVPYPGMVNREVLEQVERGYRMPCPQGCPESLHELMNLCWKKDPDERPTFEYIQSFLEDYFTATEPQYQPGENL

[39] = molecular target: ZAP70 (human) (UniProt P43403)
[40] = molecular target: PRKACG (human) (UniProt P22612)
[41] = molecular target: ULK3 (human) (UniProt Q6PHR2)

Chain of ADRBK1 (human) (P25098 whole entry, looked up): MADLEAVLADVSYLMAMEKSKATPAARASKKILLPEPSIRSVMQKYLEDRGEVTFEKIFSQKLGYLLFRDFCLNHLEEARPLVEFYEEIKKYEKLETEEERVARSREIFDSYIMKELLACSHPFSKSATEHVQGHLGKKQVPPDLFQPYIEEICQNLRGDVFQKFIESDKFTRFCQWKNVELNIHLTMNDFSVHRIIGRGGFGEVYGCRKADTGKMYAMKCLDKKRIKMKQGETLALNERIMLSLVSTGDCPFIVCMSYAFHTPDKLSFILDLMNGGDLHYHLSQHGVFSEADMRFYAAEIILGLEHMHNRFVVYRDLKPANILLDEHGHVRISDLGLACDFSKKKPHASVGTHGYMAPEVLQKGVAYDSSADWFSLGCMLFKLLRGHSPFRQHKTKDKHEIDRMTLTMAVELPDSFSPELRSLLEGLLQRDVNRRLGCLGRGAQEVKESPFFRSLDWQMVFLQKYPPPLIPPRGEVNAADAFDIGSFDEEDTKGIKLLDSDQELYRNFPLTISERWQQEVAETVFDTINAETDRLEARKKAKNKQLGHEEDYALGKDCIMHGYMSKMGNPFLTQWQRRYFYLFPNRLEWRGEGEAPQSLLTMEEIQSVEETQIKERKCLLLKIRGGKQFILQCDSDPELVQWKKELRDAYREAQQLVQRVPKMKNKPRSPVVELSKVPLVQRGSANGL
Chain of ACVR1B (human) (P36896 whole entry, looked up): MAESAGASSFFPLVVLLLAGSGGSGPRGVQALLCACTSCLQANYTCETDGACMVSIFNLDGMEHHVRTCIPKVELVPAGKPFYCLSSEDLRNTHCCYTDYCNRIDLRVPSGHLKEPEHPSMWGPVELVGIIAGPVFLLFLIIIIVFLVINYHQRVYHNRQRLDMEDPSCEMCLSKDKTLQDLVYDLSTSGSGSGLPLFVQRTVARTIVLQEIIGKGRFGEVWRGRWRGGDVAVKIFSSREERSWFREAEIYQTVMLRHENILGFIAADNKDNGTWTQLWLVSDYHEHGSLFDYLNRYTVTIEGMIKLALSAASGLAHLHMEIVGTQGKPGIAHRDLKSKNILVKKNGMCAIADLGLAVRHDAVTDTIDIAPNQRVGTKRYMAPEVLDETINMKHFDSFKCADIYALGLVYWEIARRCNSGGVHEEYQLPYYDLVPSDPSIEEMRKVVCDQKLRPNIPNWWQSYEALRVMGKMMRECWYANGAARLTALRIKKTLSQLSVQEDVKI

| SMILES | residual activity [1] [%] | residual activity [2] [%] | residual activity [3] [%] | residual activity [4] [%] | residual activity [5] [%] | residual activity [6] [%] | residual activity [7] [%] | residual activity [8] [%] | residual activity [10] [%] | residual activity [11] [%] | residual activity [12] [%] | residual activity [13] [%] | residual activity [14] [%] | residual activity [16] [%] | residual activity [17] [%] | residual activity [18] [%] | residual activity [19] [%] | residual activity [20] [%] | residual activity [21] [%] | residual activity [22] [%] | further results |
| --- | --- | --- | --- | --- | --- | --- | --- | --- | --- | --- | --- | --- | --- | --- | --- | --- | --- | --- | --- | --- | --- |
| Cc1ccc(NC2=CC(=O)c3sc(C)nc3C2=O)cc1 | 99.1 | 110 | 96.6 | 90.7 | 100 | 96.7 | 87.6 | 69.7 | 105 | 95.6 | 109 | 98.2 | 92.3 | 89.8 | 72.5 | 95.6 | 102 | 82 | 93.7 | 97.3 | residual activity [9]: 87.8%; residual activity [15]: 101%; residual activity [23]: 102%; residual activity [24]: 102%; residual activity [25]: 94.6%; residual activity [26]: 120%; residual activity [27]: 97.6%; residual activity [28]: 86.6%; residual activity [29]: 92.8%; residual activity [30]: 105%; residual activity [31]: 88.7%; residual activity [32]: 94.5%; residual activity [33]: 95.7%; residual activity [34]: 89.2%; residual activity [35]: 100%; residual activity [36]: 91.7%; residual activity [37]: 96.6%; residual activity [38]: 86.7%; residual activity [39]: 95.4% |
| O=C(Nc1cccc(Nc2nccc(Nc3cccc(C(F)(F)F)c3)n2)c1)C1CC1 | 111 | 110 | 84.7 | 80.8 | 83.6 | 104 | 95.5 | 89.3 | 83.5 | 81.7 | 106 | 96.2 | 112 | 97 | 73.1 | 54.1 | 95 | 101 | 111 | 97.9 | residual activity [9]: 95.4%; residual activity [15]: 94.3%; residual activity [23]: 97.5%; residual activity [24]: 93.7%; residual activity [25]: 96.4%; residual activity [26]: 97.9%; residual activity [27]: 102%; residual activity [28]: 84.4%; residual activity [29]: 93.6%; residual activity [30]: 87.4%; residual activity [31]: 98.3%; residual activity [32]: 90.2%; residual activity [33]: 94.7%; residual activity [34]: 72.3%; residual activity [35]: 101%; residual activity [36]: 87%; residual activity [37]: 81.5%; residual activity [38]: 78.9%; residual activity [39]: 126% |
| Nc1ncnc2[nH]nc(Nc3ccc(F)cc3)c12 | 127 | 104 | 98.6 | 96 | 89.6 | 91.7 | 103 | 90.7 | 116 | 94.2 | 90.6 | 87 | 101 | 87.3 | 78.3 | 93 | 88.6 | 101 | 98.5 | 105 | residual activity [15]: 100%; residual activity [23]: 100%; residual activity [24]: 89.6%; residual activity [25]: 85.9%; residual activity [26]: 87.6%; residual activity [27]: 105%; residual activity [28]: 91%; residual activity [29]: 87.3%; residual activity [30]: 104%; residual activity [31]: 87.5%; residual activity [32]: 98%; residual activity [40]: 96.2%; residual activity [33]: 95.9%; residual activity [34]: 68.3%; residual activity [35]: 100%; residual activity [36]: 108%; residual activity [37]: 94.3%; residual activity [41]: 92.8%; residual activity [38]: 92.9%; residual activity [39]: 95.2% |
| CCN(CC)CCNC(=O)c1c(C)[nH]c(/C=C2\C(=O)Nc3ccc(F)cc32)c1C | 121 | 101 | 94.7 | 72.8 | 99 | 106 | 75.2 | 103 | 66.9 | 154 | 82.6 | 87.6 | 50.8 | 58.7 | 2.71 | 71.3 | 85.5 | 95.8 | 74.7 | 81 | residual activity [9]: 92.2%; residual activity [23]: 45.6%; residual activity [24]: 3.34%; residual activity [25]: 104%; residual activity [26]: 42%; residual activity [27]: 93.2%; residual activity [28]: 110%; residual activity [29]: 7.74%; residual activity [30]: 80.9%; residual activity [31]: 5.12%; residual activity [32]: 96.5%; residual activity [40]: 109%; residual activity [33]: 90.2%; residual activity [34]: 84.5%; residual activity [35]: 99.7%; residual activity [36]: 55.7%; residual activity [37]: 31.8%; residual activity [41]: 57.4%; residual activity [38]: 5.91%; residual activity [39]: 97.2% |
| CC#CC(=O)Nc1cc2c(Nc3ccc(F)c(Cl)c3)ncnc2cn1 | 105 | 104 | 98.3 | 95.9 | 2.54 | 82.1 | 97.9 | 99.5 | 94.7 | 108 | 91.3 | 101 | 91.3 | 100 | 92.1 | 95.8 | 104 | 93 | 99.7 | 102 | residual activity [9]: 96.5%; residual activity [15]: 99.4%; residual activity [23]: 98.9%; residual activity [24]: 92.3%; residual activity [25]: 98.9%; residual activity [26]: 107%; residual activity [27]: 104%; residual activity [28]: 103%; residual activity [29]: 99.9%; residual activity [30]: 107%; residual activity [31]: 103%; residual activity [32]: 100%; residual activity [33]: 97.4%; residual activity [34]: 56.8%; residual activity [35]: 96.2%; residual activity [36]: 104%; residual activity [37]: 88.5%; residual activity [38]: 82.3%; residual activity [39]: 90.4% |
